Experimental data: patent US9428503B2, “Imidazo[4,5-c]quinolin-2-one compounds and their use in treating Cancer” (AstraZeneca AB, priority 2014, dated 2016)
Structures can show the parent of a compound that is named as a salt.

Experiments:
Format in all cases: cell-based
mTOR = mTOR (Homo sapiens (Human), UniProt P42345); assay: Assay d) mTOR cellular potency assay (phospho-AKT Ser473 in MDA-MB-468 cells); conditions: MDA-MB-468 cells, phospho-AKT Ser473, 2 h; geometric mean where repeated; read-out: Assay d) mTOR Cell IC50
ATM kinase = ATM kinase (Homo sapiens (Human), UniProt Q13315); assay: Assay a) ATM cellular potency assay (pATM Ser1981 in X-ray irradiated HT29 cells); conditions: HT29 cells, pATM Ser1981 after X-ray irradiation; geometric mean where repeated; read-out: Assay a) ATM Cell IC50
ATR kinase = ATR kinase (Homo sapiens (Human), UniProt Q13535); assay: Assay b) ATR cellular potency assay (pChk1 Ser345 in HT29 cells treated with 4NQO); conditions: HT29 cells, pChk1 Ser345 after 4NQO; geometric mean where repeated; read-out: Assay b) ATR Cell IC50
PI3K-α = PI3K-α (Homo sapiens, UniProt P42336); assay: Assay c) PI3K cellular potency assay (phospho-Akt T308 ELISA in BT474 cells); conditions: BT474 cells, phospho-Akt T308, 2 h; geometric mean where repeated; read-out: Assay c) PI3Kα Cell IC50
Chain of PI3K-α (P42336 whole entry, looked up): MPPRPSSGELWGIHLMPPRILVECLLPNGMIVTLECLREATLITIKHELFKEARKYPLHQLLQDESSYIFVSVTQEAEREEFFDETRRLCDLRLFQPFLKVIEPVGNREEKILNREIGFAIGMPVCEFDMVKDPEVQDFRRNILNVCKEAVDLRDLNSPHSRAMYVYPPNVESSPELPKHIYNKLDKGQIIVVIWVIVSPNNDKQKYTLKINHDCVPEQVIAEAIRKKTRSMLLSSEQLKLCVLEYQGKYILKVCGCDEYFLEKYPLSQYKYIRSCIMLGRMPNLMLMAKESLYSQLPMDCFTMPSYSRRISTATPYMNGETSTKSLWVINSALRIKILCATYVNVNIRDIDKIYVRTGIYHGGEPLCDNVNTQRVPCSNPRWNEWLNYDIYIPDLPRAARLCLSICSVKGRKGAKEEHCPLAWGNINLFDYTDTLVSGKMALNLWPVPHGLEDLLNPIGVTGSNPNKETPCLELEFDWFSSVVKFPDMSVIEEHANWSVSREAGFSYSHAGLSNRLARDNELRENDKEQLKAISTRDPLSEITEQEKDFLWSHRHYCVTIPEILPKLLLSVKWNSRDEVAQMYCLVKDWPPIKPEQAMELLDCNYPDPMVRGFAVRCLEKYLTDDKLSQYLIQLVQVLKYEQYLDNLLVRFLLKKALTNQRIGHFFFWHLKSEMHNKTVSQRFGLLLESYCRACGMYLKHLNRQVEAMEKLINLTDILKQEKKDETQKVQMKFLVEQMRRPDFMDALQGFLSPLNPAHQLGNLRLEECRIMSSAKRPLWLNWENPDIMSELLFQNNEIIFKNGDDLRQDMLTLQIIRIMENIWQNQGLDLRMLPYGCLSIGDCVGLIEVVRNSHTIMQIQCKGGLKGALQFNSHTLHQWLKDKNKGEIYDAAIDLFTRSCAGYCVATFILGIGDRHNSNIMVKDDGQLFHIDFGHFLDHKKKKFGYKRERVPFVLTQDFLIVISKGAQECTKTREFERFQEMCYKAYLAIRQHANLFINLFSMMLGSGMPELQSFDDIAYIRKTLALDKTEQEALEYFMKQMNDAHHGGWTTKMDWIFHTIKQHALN

Chain of ATM kinase (Q13315 whole entry): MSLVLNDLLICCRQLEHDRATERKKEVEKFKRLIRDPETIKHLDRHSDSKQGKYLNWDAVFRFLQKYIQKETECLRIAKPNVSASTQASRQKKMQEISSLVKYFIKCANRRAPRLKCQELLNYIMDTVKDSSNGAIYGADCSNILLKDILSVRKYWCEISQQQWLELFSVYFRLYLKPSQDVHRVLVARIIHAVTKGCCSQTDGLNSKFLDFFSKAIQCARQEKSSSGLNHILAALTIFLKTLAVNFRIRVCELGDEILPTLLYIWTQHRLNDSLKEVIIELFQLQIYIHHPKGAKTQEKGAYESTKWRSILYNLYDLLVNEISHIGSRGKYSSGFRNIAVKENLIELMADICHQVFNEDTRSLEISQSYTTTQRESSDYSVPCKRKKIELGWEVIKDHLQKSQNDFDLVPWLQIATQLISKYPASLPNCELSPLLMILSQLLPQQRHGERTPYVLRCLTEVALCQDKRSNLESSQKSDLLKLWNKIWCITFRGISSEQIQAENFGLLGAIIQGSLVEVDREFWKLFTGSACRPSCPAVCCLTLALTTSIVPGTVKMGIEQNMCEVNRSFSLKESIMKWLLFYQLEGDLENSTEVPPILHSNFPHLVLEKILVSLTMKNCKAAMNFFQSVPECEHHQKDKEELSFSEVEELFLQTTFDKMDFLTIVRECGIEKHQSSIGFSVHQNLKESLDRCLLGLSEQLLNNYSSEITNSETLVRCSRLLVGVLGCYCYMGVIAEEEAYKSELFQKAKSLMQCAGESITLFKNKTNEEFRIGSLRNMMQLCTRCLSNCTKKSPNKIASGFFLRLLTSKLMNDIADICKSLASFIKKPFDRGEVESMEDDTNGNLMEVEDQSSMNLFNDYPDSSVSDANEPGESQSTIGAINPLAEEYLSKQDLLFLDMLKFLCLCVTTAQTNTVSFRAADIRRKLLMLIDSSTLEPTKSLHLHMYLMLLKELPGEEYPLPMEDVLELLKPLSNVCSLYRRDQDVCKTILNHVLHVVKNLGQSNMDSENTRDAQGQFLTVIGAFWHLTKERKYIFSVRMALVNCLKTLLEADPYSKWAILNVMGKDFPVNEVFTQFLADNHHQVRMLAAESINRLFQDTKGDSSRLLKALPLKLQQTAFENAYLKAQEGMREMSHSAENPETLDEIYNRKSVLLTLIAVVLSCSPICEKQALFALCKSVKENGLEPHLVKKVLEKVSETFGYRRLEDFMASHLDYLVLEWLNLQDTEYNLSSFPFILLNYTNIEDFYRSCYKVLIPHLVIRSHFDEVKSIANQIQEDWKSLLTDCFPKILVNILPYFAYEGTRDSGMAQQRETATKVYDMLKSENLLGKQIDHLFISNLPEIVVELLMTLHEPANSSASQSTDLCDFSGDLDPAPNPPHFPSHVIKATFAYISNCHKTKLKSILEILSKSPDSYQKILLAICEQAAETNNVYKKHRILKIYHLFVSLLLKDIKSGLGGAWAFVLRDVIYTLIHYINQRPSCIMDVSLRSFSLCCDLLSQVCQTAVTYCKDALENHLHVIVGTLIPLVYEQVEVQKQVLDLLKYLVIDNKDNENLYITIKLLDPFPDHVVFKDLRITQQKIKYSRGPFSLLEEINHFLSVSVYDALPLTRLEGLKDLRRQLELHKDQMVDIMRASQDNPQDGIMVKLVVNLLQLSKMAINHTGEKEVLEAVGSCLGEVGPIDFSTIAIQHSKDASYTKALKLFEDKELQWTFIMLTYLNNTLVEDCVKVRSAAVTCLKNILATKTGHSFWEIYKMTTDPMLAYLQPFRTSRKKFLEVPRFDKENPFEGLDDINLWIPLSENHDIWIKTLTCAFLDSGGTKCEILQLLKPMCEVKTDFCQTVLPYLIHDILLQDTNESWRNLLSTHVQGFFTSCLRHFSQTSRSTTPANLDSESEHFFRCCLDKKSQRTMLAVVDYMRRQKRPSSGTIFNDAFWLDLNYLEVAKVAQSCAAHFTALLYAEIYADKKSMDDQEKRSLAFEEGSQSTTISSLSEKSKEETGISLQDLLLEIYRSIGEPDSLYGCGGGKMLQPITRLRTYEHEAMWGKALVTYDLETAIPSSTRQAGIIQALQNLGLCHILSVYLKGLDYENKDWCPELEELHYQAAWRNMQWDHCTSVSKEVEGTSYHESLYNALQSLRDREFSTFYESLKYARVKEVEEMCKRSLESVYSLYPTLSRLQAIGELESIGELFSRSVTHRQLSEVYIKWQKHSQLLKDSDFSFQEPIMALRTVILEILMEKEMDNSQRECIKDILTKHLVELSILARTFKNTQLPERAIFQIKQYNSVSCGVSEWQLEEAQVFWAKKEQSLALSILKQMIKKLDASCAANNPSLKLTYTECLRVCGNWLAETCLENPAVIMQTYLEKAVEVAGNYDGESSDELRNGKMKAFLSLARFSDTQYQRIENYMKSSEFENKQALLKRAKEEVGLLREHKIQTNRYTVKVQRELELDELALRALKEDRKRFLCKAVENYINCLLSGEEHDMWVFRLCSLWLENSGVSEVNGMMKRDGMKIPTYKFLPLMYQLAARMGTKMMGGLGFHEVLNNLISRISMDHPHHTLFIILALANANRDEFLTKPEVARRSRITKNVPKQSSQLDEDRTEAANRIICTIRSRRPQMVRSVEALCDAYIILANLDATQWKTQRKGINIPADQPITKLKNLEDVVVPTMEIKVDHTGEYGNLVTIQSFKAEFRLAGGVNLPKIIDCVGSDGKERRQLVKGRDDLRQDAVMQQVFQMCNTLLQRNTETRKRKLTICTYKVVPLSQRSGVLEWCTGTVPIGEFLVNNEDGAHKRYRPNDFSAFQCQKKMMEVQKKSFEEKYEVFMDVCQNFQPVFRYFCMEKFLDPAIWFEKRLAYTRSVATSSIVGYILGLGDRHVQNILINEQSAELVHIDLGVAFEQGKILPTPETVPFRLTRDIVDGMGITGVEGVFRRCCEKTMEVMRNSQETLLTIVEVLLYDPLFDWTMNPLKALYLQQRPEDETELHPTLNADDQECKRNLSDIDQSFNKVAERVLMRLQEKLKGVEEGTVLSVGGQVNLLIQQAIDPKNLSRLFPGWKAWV

IC50 (mTOR) [µM]	IC50 (ATM kinase) [µM]	IC50 (ATR kinase) [µM]	IC50 (PI3K-α) [µM]	Structure (SMILES)
2.37	0.00107	> 19.2	0.56	CN(C)CCCOc1ccc(-c2ccc3ncc4c(c3c2)n([C@@H]2CCOC2)c(=O)n4C)cn1 [Example 44, 8-[6-[3-(Dimethylamino)propoxy]-3-pyridyl]-3-methyl-1-[(3R)-tetrahydrofuran-3-yl]imidazo[4,5-c]quinolin-2-one methanesulfonic acid salt]
1.19	< 0.000534	9.6	0.26	CN(C)CCCOc1ccc(-c2ccc3ncc4c(c3c2)n([C@H]2CCOC2)c(=O)n4C)cn1 [Example 45, 8-[6-[3-(dimethylamino)propoxy]-3-pyridyl]-3-methyl-1-[(3S)-tetrahydrofuran-3-yl]imidazo[4,5-c]quinolin-2-one methanesulfonic acid salt]
> 30	0.000799	> 30	> 23.5	Cn1c(=O)n([C@H]2CCCOC2)c2c3cc(-c4ccc(OCCCN5CCCCC5)nc4)c(F)cc3ncc21 [Example 47, 7-Fluoro-3-methyl-8-[6-[3-(1-piperidyl)propoxy]-3-pyridyl]-1-[(3S)-tetrahydropyran-3-yl]imidazo[4,5-c]quinolin-2-one methanesulfonic acid salt]
23	0.00102	> 30	> 9.4	CN(C)CCCOc1ccc(-c2cc3c(cc2F)ncc2c3n([C@H]3CCCOC3)c(=O)n2C)c(F)n1 [Example 48, 8-[6-[3-(Dimethylamino)propoxy]-2-fluoro-3-pyridyl]-7-fluoro-3-methyl-1-[(3S)-tetrahydropyran-3-yl]imidazo[4,5-c]quinolin-2-one methanesulfonic acid salt]
5.38	0.000722	> 30	3.2	CN(C)CCCOc1ccc(-c2ccc3ncc4c(c3c2)n(C2CCC2)c(=O)n4C)c(F)n1 [Example 51, 1-cyclobutyl-8-[6-[3-(dimethylamino)propoxy]-2-fluoro-3-pyridyl]-3-methyl-imidazo[4,5-c]quinolin-2-one methanesulfonic acid salt]
12.4	0.00302	> 30	> 26.3	Cn1c(=O)n(C2COC2)c2c3cc(-c4ccc(OCCCN5CCCCC5)nc4)ccc3ncc21 [Example 56, 3-methyl-1-(oxetan-3-yl)-8-[6-[3-(1-piperdyl)propoxy]-3-pyridyl]imidazo[4,5-c]quinolin-2-one trifluoroacetic acid salt]
7.29	0.00031	> 28.1	> 9.56	Cn1c(=O)n(C2CCC2)c2c3cc(-c4ccc(OCCCN5CCCC5)nc4)ccc3ncc21 [Example 58, 1-cyclobutyl-3-methyl-8-[6-(3-pyrrolidin-1-ylpropoxy)-3-pyridyl]imidazo[4,5-c]quinolin-2-one]
10.8	0.00031	> 30	3.28	CO[C@H]1CC[C@H](n2c(=O)n(C)c3cnc4cc(F)c(-c5ccc(OCCCN(C)C)nc5)cc4c32)C1 [Example 63, 8-[6-[3-(Dimethylamino)propoxy]-3-pyridyl]-7-fluoro-1-[(1S,3S)-3-methoxycyclopentyl]-3-methyl-imidazo[4,5-c]quinolin-2-one]
3.18	0.000208	> 29	0.644	CO[C@@H]1CC[C@@H](n2c(=O)n(C)c3cnc4ccc(-c5ccc(OCCCN(C)C)nc5F)cc4c32)C1 [Example 68, 8-[6-[3-(Dimethylamino)propoxy]-2-fluoro-3-pyridyl]-1-[(1R,3R)-3-methoxycyclopentyl]-3-methyl-imidazo[4,5-c]quinolin-2-one]
> 30	0.00243	> 24.9	> 30	CO[C@H]1CC[C@@H](n2c(=O)n(C)c3cnc4cc(F)c(-c5ccc(OCCCN(C)C)nc5)cc4c32)C1 [Example 70, 8-[6-[3-(dimethylamino)propoxy]-3-pyridyl]-7-fluoro-1-[(1R,3S)-3-methoxycyclopentyl]-3-methyl-imidazo[4,5-c]quinolin-2-one]
15.2	0.00145	> 30	> 11.4	CO[C@@H]1CC[C@H](n2c(=O)n(C)c3cnc4cc(F)c(-c5ccc(OCCCN(C)C)nc5)cc4c32)C1 [Example 71, 8-[6-[3-(dimethylamino)propoxy]-3-pyridyl]-7-fluoro-1-[(1S,3R)-3-methoxycyclopentyl]-3-methyl-imidazo[4,5-c]quinolin-2-one]

Structure (SMILES)	IC50 (mTOR) [µM]	IC50 (ATM kinase) [µM]	IC50 (ATR kinase) [µM]	IC50 (PI3K-α) [µM]
Cn1c(=O)n(C2CCC2)c2c3cc(-c4ccc(OCCCN5CCCCC5)nc4)ccc3ncc21 [Example 57, 1-cyclobutyl-3-methyl-8-[6-[3-(1-piperidyl)propoxy]-3-pyridyl]imidazo[4,5-c]quinolin-2-one trifluoroacetic acid salt]	5.77	0.000434	> 30	> 14.3
CO[C@@H]1CC[C@@H](n2c(=O)n(C)c3cnc4ccc(-c5ccc(OCCCN6CCCCC6)nc5)cc4c32)C1 [Example 64, 1-[(1R,3R)-3-Methoxycyclopentyl]-3-methyl-8-[6-[3-(1-piperidyl)propoxy]-3-pyridyl]imidazo[4,5-c]quinolin-2-one]	12	0.000741	> 24.1	> 30
CO[C@H]1CC[C@H](n2c(=O)n(C)c3cnc4ccc(-c5ccc(OCCCN6CCCCC6)nc5)cc4c32)C1 [Example 65, 1-[(1S,3S)-3-Methoxycyclopentyl]-3-methyl-8-[6-[3-(1-piperidyl)propoxy]-3-pyridyl]imidazo[4,5-c]quinolin-2-one]	6.34	0.00022	> 26.6	1.84
